{"source": "patent US6843979B2", "about": "“4-haloethenylphenyl tropane:serotonin transporter imaging agents” (Emory University, priority 1999, dated 2005)", "key": {"[1]": {"biological_target": "dopamine transporter (DAT) (Rattus norvegicus, UniProt P23977)", "sequence (P23977 whole entry)": "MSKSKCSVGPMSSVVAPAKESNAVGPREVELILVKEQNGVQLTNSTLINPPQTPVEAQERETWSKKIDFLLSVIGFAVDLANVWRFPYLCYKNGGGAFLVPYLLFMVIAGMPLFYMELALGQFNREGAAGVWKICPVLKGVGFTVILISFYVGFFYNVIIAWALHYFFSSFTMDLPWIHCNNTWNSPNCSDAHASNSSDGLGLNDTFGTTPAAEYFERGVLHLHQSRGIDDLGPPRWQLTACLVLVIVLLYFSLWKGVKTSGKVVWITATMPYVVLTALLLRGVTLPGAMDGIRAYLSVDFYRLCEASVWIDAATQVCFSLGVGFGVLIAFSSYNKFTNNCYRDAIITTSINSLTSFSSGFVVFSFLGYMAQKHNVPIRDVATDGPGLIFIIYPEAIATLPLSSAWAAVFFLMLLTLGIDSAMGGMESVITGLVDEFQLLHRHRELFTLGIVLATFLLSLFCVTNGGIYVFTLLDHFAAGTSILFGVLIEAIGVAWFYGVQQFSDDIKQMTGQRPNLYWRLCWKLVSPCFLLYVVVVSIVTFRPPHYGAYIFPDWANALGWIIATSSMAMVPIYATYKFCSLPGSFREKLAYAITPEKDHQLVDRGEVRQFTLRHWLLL", "conditions": "vs [3H]WIN 35428; cited from earlier work"}, "SERT [2]": {"system": "SERT", "conditions": "cited from earlier work"}, "SERT [3]": {"biological_target": "T1, SERT (Rattus norvegicus, UniProt P31652)", "T1 construct": "from tissue; host or cells: brain and other tissues of living male Sprague Dawley rats", "T1 sequence (P31652 whole entry)": "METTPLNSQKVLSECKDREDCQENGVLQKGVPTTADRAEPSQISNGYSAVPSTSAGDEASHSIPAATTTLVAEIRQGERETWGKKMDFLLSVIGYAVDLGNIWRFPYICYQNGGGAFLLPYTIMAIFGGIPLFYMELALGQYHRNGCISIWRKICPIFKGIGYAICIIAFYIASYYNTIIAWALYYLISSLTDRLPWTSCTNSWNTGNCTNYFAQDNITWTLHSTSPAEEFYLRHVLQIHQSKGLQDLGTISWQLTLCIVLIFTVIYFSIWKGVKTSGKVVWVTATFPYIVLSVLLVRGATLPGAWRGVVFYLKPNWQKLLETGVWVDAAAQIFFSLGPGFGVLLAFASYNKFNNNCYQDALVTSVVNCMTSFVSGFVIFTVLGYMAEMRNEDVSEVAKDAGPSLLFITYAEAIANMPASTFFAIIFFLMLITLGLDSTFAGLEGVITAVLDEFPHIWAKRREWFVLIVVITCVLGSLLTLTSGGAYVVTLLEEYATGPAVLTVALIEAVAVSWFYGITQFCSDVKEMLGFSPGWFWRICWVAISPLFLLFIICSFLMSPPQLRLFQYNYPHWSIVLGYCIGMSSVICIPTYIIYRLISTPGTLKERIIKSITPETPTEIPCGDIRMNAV", "assay": "Tissue uptake of [18F]FEINT in rats", "type": "in vivo, Sprague Dawley rat", "conditions": "for Clearance from the hypothalamus: rat", "method": "The in vivo regional brain tissue distribution of [^18F]FEBrNT (Table 2) and [^18F]FEINT Tables 3 and 4) were compared with a preliminary study in rats. […] The hypothalamus to cerebellum ratios for [^18F]FEBrNT were 5.7 at 60 min post injection in comparison to 4.8 for [^18F]FEINT. […] The regional distribution of [^18F]FEBrNT and [^18F]FEINT were next studied in the brain of rhesus monkeys."}, "SERT [4]": {"biological_target": "T2, SERT (Macaca mulatta, UniProt Q9MYX0)", "T2 construct": "from tissue; host or cells: brain of a living rhesus monkey", "T2 sequence (Q9MYX0 whole entry)": "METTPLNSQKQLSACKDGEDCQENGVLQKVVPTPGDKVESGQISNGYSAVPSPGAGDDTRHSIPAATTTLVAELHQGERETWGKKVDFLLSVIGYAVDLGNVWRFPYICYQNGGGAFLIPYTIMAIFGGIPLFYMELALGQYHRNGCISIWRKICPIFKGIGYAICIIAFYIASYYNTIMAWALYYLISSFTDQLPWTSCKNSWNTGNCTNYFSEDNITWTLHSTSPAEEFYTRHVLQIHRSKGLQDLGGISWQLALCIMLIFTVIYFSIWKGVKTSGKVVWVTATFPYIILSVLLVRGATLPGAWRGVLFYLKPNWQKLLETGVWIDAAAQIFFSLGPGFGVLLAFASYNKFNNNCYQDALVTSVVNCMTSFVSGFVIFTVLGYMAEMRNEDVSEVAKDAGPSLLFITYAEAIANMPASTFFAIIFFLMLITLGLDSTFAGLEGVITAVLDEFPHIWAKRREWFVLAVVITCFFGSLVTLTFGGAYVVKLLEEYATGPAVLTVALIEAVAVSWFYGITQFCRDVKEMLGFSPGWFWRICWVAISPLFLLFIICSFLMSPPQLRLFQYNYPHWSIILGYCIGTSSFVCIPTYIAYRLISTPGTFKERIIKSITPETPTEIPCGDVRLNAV", "assay": "PET imaging and fluvoxamine displacement in rhesus monkey", "type": "in vivo", "conditions": "anesthetized rhesus monkey; thalamus, hypothalamus, pons / midbrain, brain stem", "method": "FIG. 3 is a graph showing time activity curves of [^18F]FEBrNT in a rhesus monkey in the thalamus (∘), hypothalamus (Δ), pons (⋄) and cerebellum (x) at 0-120 min i.v. post injection."}, "SERT sites": {"system": "SERT sites", "assay": "In vitro autoradiography, coronal brain slices", "type": "binding, pig tailed macaque", "method": "[^18F]FEINT and [^18F]FEBrNT were incubated with pig tailed macaque coronal brain slices and the slices exposed to film for 30 min. […] Incubation of the brain slices with [^18F]FEINT (FIG. 1) and [^18F]FEBrNT and 10 μM citalopram yielded maximal inhibition (90%) of binding.\nThe radiosynthesis for [^18F] 10a, [^18F]12a, and [^18F]12b employed the tosylates 9a and 13a,b as the substrates respectively. The tosylate 9a was treated with NCA K[^18F]/K222 for 10 min in 1 mL of CH3CN at 85° C. followed by TFA/CH2Cl2 at 27° C. […] [^18F]FEBrNT and [^18F]FEClNT were synthesized from the tosylates 13a and 13b in a similar manner. [^18F]FEINT and [18F]FEBrNT were incubated with pig tailed macaque coronal brain slices."}, "SERT [5]": {"biological_target": "T1, SERT", "assay": "Ex vivo autoradiographic study in rats", "parameters": "species or system Sprague Dawley rat", "method": "An initial ex vivo autoradiographic study was performed with either [^18F]FEINT or [^18F]FEBrNT in rats to measure brain penetration and regional distribution. A male Sprague Dawley rat was injected with one mCi of no-carrier added either […]."}, "[6]": {"conditions": "Table 3, rat, 60 min after i.v., Fluvoxamine"}, "[7]": {"conditions": "Table 3, rat, 60 min after i.v., No block"}, "[8]": {"conditions": "Table 4, rat, 30 min after i.v."}, "[9]": {"conditions": "Table 4, rat, 60 min after i.v."}, "[10]": {"conditions": "Table 4, rat, 120 min after i.v."}}, "note": "Several values for one entry are separate records, joined by “and”; a condition that tells them apart may be missing. Equal values may be shown once.", "data": [{"compound": "CC=Cc1ccc(C2CC3CCC(N3)C2C(=O)OC)cc1", "note": "(stereo not drawn) [Nor-β-CCPPT, 2β-carbomethoxy-3β-(4′cis-propenylphenyl)notropane]", "values": [{"measurement": "IC50", "setting": "[1]", "result": 32, "unit": "nM"}, {"measurement": "Selectivity for the SERT over the DAT", "setting": "SERT [2]", "result": 28, "unit": "times"}, {"measurement": "IC50", "setting": "SERT [2]; vs [3H]paroxetine", "result": 1.15, "unit": "nM"}]}, {"compound": "COC(=O)C1C2CCC(CC1c1ccc(CC[18F])c(I)c1)N2", "note": "(centres unmarked) [[^18F]FEINT]", "values": [{"measurement": "Hypothal/(CB) ratio", "setting": "SERT [3]; [6]", "result": 3.8}, {"measurement": "Striatum/(CB) ratio", "setting": "SERT [3]; [6]", "result": 2.0}, {"measurement": "Tissue uptake, Blood", "setting": "SERT [3]; [6]", "result": "0.07 (0.06-0.08) % dose/g"}, {"measurement": "Tissue uptake, Cerebellum", "setting": "SERT [3]; [6]", "result": "0.1 (0.09-0.12) % dose/g"}, {"measurement": "Tissue uptake, Cortex", "setting": "SERT [3]; [6]", "result": "0.15 (0.15-0.73) % dose/g"}, {"measurement": "Tissue uptake, Hypothalamus", "setting": "SERT [3]; [6]", "result": "0.38 (0.28-0.45) % dose/g"}, {"measurement": "Tissue uptake, Olf. T.", "setting": "SERT [3]; [6]", "result": "0.04 (0.19-0.55) % dose/g"}, {"measurement": "Tissue uptake, Prefrontal Cortex", "setting": "SERT [3]; [6]", "result": "0.18 (0.06-0.41) % dose/g"}, {"measurement": "Tissue uptake, Striatum", "setting": "SERT [3]; [6]", "result": "0.2 (0.16-1.40) % dose/g"}, {"measurement": "Hypothal/(CB) ratio", "setting": "SERT [3]; [7]", "result": "4.8 and 4.6"}, {"measurement": "Striatum/(CB) ratio", "setting": "SERT [3]; [7]", "result": 2.3}, {"measurement": "Tissue uptake, Blood", "setting": "SERT [3]; [7]", "result": "0.09 (0.09-0.99) % dose/g"}, {"measurement": "Tissue uptake, Cerebellum", "setting": "SERT [3]; [7]", "result": "0.11 (0.11-0.12) % dose/g"}, {"measurement": "Tissue uptake, Cortex", "setting": "SERT [3]; [7]", "result": "0.18 (0.15-0.19) % dose/g"}, {"measurement": "Tissue uptake, Hypothalamus", "setting": "SERT [3]; [7]", "result": "0.5 (0.32-0.77) % dose/g"}, {"measurement": "Tissue uptake, Olf. T.", "setting": "SERT [3]; [7]", "result": "1.46 (1.24-1.65) % dose/g"}, {"measurement": "Tissue uptake, Prefrontal Cortex", "setting": "SERT [3]; [7]", "result": "0.25 (0.21-0.29) % dose/g"}, {"measurement": "Tissue uptake, Striatum", "setting": "SERT [3]; [7]", "result": "0.25 (0.21-0.29) % dose/g"}, {"measurement": "Hypothal/(CB) ratio", "setting": "SERT [3]; Table 4, rat, 5 min after i.v.", "result": 1.67}, {"measurement": "Striatum/(CB) ratio", "setting": "SERT [3]; Table 4, rat, 5 min after i.v.", "result": 1.45}, {"measurement": "Tissue uptake, Blood", "setting": "SERT [3]; Table 4, rat, 5 min after i.v.", "result": "0.19 (0.15-0.23)"}, {"measurement": "Tissue uptake, Bone", "setting": "SERT [3]; Table 4, rat, 5 min after i.v.", "result": "0.27 (0.23-0.31)"}, {"measurement": "Tissue uptake, Brain", "setting": "SERT [3]; Table 4, rat, 5 min after i.v.", "result": "0.65 (0.56-0.75)"}, {"measurement": "Tissue uptake, Cerebellum", "setting": "SERT [3]; Table 4, rat, 5 min after i.v.", "result": "0.58 (0.51-0.65)"}, {"measurement": "Tissue uptake, Cortex", "setting": "SERT [3]; Table 4, rat, 5 min after i.v.", "result": "0.76 (0.64-0.96)"}, {"measurement": "Tissue uptake, Hypothalamus", "setting": "SERT [3]; Table 4, rat, 5 min after i.v.", "result": "0.97 (0.58-1.59)"}, {"measurement": "Tissue uptake, Pre-frontal Cortex", "setting": "SERT [3]; Table 4, rat, 5 min after i.v.", "result": "0.75 (0.54-0.87)"}, {"measurement": "Tissue uptake, Striatum", "setting": "SERT [3]; Table 4, rat, 5 min after i.v.", "result": "0.84 (0.59-1.20)"}, {"measurement": "Hypothal/(CB) ratio", "setting": "SERT [3]; [8]", "result": 2.87}, {"measurement": "Striatum/(CB) ratio", "setting": "SERT [3]; [8]", "result": 1.70}, {"measurement": "Tissue uptake, Blood", "setting": "SERT [3]; [8]", "result": "0.14 (0.13-0.15)"}, {"measurement": "Tissue uptake, Bone", "setting": "SERT [3]; [8]", "result": "0.70 (0.36-0.92)"}, {"measurement": "Tissue uptake, Brain", "setting": "SERT [3]; [8]", "result": "0.35 (0.32-0.40)"}, {"measurement": "Tissue uptake, Cerebellum", "setting": "SERT [3]; [8]", "result": "0.23 (0.22-0.23)"}, {"measurement": "Tissue uptake, Cortex", "setting": "SERT [3]; [8]", "result": "0.36 (0.34-0.40)"}, {"measurement": "Tissue uptake, Hypothalamus", "setting": "SERT [3]; [8]", "result": "0.66 (0.51-0.89)"}, {"measurement": "Tissue uptake, Pre-frontal Cortex", "setting": "SERT [3]; [8]", "result": "0.37 (0.33-0.42)"}, {"measurement": "Tissue uptake, Striatum", "setting": "SERT [3]; [8]", "result": "0.39 (0.29-0.55)"}, {"measurement": "Hypothal/(CB) ratio", "setting": "SERT [3]; [9]", "result": 2.67}, {"measurement": "Striatum/(CB) ratio", "setting": "SERT [3]; [9]", "result": 2.44}, {"measurement": "Tissue uptake, Blood", "setting": "SERT [3]; [9]", "result": "0.10 (0.08-0.11)"}, {"measurement": "Tissue uptake, Bone", "setting": "SERT [3]; [9]", "result": "0.95 (0.53-1.17)"}, {"measurement": "Tissue uptake, Brain", "setting": "SERT [3]; [9]", "result": "0.14 (0.12-0.18)"}, {"measurement": "Tissue uptake, Cerebellum", "setting": "SERT [3]; [9]", "result": "0.09 (0.07-0.11)"}, {"measurement": "Tissue uptake, Cortex", "setting": "SERT [3]; [9]", "result": "0.13 (0.10-0.17)"}, {"measurement": "Tissue uptake, Hypothalamus", "setting": "SERT [3]; [9]", "result": "0.24 (0.18-0.30)"}, {"measurement": "Tissue uptake, Pre-frontal Cortex", "setting": "SERT [3]; [9]", "result": "0.14 (0.11-0.19)"}, {"measurement": "Tissue uptake, Striatum", "setting": "SERT [3]; [9]", "result": "0.22 (0.17-0.31)"}, {"measurement": "Hypothal/(CB) ratio", "setting": "SERT [3]; [10]", "result": "2.8 and 2.83"}, {"measurement": "Striatum/(CB) ratio", "setting": "SERT [3]; [10]", "result": "1.7 and 1.67"}, {"measurement": "Tissue uptake, Blood", "setting": "SERT [3]; [10]", "result": "0.63 (0.58-0.68)"}, {"measurement": "Tissue uptake, Bone", "setting": "SERT [3]; [10]", "result": "1.26 (0.94-1.67)"}, {"measurement": "Tissue uptake, Brain", "setting": "SERT [3]; [10]", "result": "0.89 (0.08-0.11)"}, {"measurement": "Tissue uptake, Cerebellum", "setting": "SERT [3]; [10]", "result": "0.06 (0.05-0.08)"}, {"measurement": "Tissue uptake, Cortex", "setting": "SERT [3]; [10]", "result": "0.09 (0.08-0.11)"}, {"measurement": "Tissue uptake, Hypothalamus", "setting": "SERT [3]; [10]", "result": "0.17 (0.26-0.17)"}, {"measurement": "Tissue uptake, Pre-frontal Cortex", "setting": "SERT [3]; [10]", "result": "0.10 (0.09-0.11)"}, {"measurement": "Tissue uptake, Striatum", "setting": "SERT [3]; [10]", "result": "0.10 (0.09-0.13)"}, {"measurement": "Clearance from the hypothalamus", "setting": "SERT [3]; at 60 min compared to 5 min post injection", "result": 75, "unit": "%"}, {"measurement": "Clearance from the hypothalamus", "setting": "SERT [3]; at 120 min compared to 5 min post injection", "result": 85, "unit": "%"}, {"measurement": "Regional brain uptake by PET", "setting": "SERT [4]", "result": "no visible uptake"}, {"measurement": "Localization of tracer binding in brain slices", "setting": "SERT sites; slices exposed to film 30 min", "result": "localized to the thalamus, hypothalamus, caudate, amygloid complex, putamen and temporal cortex"}, {"measurement": "Inhibition of tracer binding to brain slices", "setting": "SERT sites; with 10 μM citalopram", "result": 90, "unit": "%"}, {"measurement": "Localization of tracer binding, ex vivo autoradiography", "setting": "SERT [5]; 1 mCi tracer", "result": "localized to the thalamus, hypothalamus, caudate, putamen and amygloid complex"}, {"measurement": "Effect of fluvoxamine block on tracer binding", "setting": "SERT [5]; fluvoxamine 5 mg/kg 20 min prior to tracer", "result": "maximal inhibition of binding"}]}]}
